{"source": "patent US11884612B2", "about": "“Covalent peptide binders” (The Regents of the University of California, priority 2016, dated 2024)", "key": {"[1]": {"target": "T1, p53-Mdm4 interaction (Homo sapiens, UniProt O15151)", "T1 construct": "expressed in transfected cells; host or cells: Saos-2 (p53-null) ReBiL reporter cells; lysate", "T1 sequence (O15151 1-490)": "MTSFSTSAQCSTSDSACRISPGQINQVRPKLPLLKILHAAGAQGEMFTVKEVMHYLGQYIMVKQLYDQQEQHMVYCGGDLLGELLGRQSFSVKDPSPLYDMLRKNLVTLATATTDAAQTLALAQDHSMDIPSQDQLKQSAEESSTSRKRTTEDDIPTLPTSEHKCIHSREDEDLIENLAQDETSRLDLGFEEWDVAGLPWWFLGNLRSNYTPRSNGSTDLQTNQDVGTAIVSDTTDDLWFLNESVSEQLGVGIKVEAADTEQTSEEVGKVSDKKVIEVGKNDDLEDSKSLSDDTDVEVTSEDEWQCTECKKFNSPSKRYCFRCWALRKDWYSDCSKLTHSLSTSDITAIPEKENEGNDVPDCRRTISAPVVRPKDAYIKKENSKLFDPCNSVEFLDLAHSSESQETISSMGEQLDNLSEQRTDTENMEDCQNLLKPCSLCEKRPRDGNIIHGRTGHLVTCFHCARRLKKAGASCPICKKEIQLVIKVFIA", "assay": "ReBiL assay of peptide inhibition of p53-Mdm4 interaction in cell lysates", "format": "biochemical", "details": "Saos-2 cell lysates", "source_text": "In ReBiL, luciferase is split and separately fused to Mdm2/Mdm4 and p53, and the expression cassette is integrated into a single chromosomal site in host cells (FIG. 3A). Inhibition of the interaction between p53 and Mdm2/Mdm4 results in a decrease in luciferase activity."}, "[2]": {"target": "T2, Brca1-Bard1 interaction (Homo sapiens, UniProt P38398+Q99728)", "T2 construct": "expressed in transfected cells; host or cells: Saos-2 ReBiL reporter cells; lysate", "T2 sequence (P38398 whole entry)": "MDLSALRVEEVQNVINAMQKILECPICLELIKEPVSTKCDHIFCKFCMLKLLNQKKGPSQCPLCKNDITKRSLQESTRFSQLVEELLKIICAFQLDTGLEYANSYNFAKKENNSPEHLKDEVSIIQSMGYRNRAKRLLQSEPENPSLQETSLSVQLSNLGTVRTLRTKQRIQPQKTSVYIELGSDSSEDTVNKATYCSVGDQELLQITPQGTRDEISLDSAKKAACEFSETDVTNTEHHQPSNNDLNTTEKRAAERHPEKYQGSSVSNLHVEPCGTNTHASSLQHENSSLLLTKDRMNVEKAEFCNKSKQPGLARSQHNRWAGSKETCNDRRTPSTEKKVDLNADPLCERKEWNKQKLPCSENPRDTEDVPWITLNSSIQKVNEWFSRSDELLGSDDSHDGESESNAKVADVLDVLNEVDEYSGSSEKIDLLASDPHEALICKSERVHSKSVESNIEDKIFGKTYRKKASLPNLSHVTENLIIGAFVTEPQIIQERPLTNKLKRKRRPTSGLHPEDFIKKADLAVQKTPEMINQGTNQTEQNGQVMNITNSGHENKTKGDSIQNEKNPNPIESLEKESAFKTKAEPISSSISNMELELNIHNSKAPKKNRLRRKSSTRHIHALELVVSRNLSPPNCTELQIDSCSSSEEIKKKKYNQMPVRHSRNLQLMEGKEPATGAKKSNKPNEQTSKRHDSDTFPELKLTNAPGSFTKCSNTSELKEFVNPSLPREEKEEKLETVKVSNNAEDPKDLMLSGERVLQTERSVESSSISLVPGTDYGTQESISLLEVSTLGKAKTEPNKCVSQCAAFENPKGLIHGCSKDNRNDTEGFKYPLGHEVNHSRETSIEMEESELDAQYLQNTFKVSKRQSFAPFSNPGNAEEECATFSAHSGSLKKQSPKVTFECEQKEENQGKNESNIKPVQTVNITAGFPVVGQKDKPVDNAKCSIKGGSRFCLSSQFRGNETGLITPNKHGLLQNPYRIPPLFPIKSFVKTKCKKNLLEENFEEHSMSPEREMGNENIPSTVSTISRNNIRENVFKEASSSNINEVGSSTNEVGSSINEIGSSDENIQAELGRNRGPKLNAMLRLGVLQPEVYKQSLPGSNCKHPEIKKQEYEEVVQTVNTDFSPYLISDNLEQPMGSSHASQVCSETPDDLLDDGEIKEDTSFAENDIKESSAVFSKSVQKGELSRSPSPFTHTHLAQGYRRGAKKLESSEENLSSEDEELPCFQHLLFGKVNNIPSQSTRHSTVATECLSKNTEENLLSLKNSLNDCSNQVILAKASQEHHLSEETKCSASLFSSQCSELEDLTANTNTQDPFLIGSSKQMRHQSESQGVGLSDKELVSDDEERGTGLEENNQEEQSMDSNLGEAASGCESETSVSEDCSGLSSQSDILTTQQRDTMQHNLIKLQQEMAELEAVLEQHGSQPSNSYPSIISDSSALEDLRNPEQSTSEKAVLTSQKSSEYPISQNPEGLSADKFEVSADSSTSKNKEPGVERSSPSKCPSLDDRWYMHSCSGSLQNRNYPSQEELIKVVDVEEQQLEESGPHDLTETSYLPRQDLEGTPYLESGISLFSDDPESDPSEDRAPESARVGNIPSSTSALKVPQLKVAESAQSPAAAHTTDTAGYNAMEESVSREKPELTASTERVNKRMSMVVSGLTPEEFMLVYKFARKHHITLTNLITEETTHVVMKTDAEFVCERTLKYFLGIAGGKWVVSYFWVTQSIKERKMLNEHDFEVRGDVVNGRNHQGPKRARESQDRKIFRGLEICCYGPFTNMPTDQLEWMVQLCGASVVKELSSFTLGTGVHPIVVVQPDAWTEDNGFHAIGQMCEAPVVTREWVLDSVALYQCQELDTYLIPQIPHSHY", "T2 sequence (Q99728 whole entry)": "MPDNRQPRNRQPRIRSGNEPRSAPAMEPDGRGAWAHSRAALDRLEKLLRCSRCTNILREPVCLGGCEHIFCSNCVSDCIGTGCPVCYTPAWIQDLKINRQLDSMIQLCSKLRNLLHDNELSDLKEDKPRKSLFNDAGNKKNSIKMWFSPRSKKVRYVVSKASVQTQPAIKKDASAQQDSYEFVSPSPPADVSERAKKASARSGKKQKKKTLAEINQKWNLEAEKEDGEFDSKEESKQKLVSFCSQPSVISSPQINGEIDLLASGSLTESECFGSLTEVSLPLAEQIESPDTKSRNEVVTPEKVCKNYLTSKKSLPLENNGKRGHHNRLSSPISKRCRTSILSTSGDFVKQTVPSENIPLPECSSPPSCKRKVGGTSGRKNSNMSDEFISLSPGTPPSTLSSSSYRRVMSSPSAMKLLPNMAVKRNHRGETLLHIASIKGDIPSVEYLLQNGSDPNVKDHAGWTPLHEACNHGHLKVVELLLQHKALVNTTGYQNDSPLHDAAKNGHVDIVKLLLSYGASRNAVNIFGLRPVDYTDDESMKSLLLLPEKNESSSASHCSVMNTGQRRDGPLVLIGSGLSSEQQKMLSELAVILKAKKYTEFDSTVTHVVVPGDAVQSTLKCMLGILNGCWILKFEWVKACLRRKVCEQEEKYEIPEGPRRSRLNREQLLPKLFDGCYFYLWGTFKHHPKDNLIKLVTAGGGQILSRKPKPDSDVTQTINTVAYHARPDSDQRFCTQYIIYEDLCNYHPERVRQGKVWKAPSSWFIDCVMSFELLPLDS", "assay": "ReBiL assay of peptide inhibition of Brca1-Bard1 interaction in cell lysates (binding selectivity)", "format": "biochemical", "details": "cell lysates of Saos-2 cells", "description": "To test the binding selectivity of peptides 2, 4 and 5, we then incubated the peptides with cell lysates of Saos-2 cells harboring ReBiL system expressing Brca1-Bard1 instead of p53-Mdm2/Mdmx."}, "[3]": {"system": "His-tagged Mdm4", "assay": "Covalent binding to purified Mdm4 (anti-His immunoblot band shift, ESI-MS)", "source_text": "FIG. 4. […] After separation by SDS-PAGE, an anti-His antibody was used to detect Mdm4."}, "[4]": {"system": "p53 null Saos-2 cells", "assay": "Cell viability (p53-independent cytotoxicity), CELL TITER-GLO assay", "details": "37° C., 8 h, 50, 25, 12.5 uM", "procedure": "Error bars are s.e.m. (n=5) and normalized to the luminescence reading of DMSO treated cells.\nCell viability was measured on the p53-null Saos-2 cells by CELL TITER-GLO® assay per Promega's instructions. Peptides were incubated with the Saos-2 cells at 37° C. for 8 h."}}, "note": "“Also recorded” adds a separate entry of the source. Positions of bridges follow the written chain, without caps; N, C: chain ends. Non-standard residues stand in square brackets, D forms with d. Residues, ends and D or L forms follow the SMILES beside them. *: point of attachment. Benzoyl(3-SO2F) = O=C(c1cccc(S(=O)(=O)F)c1)*; R8 = C=CCCCCCC[C@@](C)(N)C(=O)O; S5 = C=CCCC[C@](C)(N)C(=O)O; Dap = NC[C@H](N)C(=O)O", "data": [{"smiles": "CC(=O)N[C@@H](CCC(N)=O)C(=O)N[C@@H](CO)C(=O)N[C@@H](CCC(N)=O)C(=O)N[C@@H](CCC(N)=O)C(=O)N[C@H](C(=O)N[C@@H](Cc1ccccc1)C(=O)N[C@]1(C)CCCCCCC=CCCC[C@@](C)(C(=O)N[C@@H](CCC(N)=O)C(=O)N[C@@H](CC(N)=O)C(N)=O)NC(=O)[C@H](CC(C)C)NC(=O)[C@H](CC(C)C)NC(=O)[C@H](CCCNC(=N)N)NC(=O)[C@H](Cc2c[nH]c3ccccc23)NC(=O)[C@H](CNC(=O)c2cccc(S(=O)(=O)F)c2)NC(=O)[C@H](CC(N)=O)NC1=O)[C@@H](C)O", "note": "[Peptide 4] (Ac-QSQQTF[R8]N[Dap](Benzoyl(3-SO2F))WRLL[S5]QN-NH2; staple 7-14 (inferred))", "values": [{"measurement": "activity to Mdm4 relative to Mdm2", "setting": "[1]", "result": "ten-fold higher"}, {"measurement": "inhibition of Brca1-Bard1 interaction", "setting": "[2]", "result": "did not inhibit"}, {"measurement": "time until crosslinking (\"sulfate click reaction\") with Mdm4 was complete", "setting": "[3]; 37° C., PBS buffer pH 7.5", "result": "≤ 10", "unit": "min"}, {"measurement": "shift of Mdm4 band to higher molecular weight (covalent binding), immunoblot", "setting": "[3]; Mdm4 1.5 μM, peptide 3 μM, PBS buffer pH 7.5, 37° C., 10, 20 and 60 min", "result": "shifted the Mdm4 band to a higher molecular weight; also recorded: shift of the band to a higher molecular weight"}, {"measurement": "covalent complex formation with Mdm4 by ESI-MS", "setting": "[3]; incubated 60 min", "result": "confirmed the covalent complex formation"}, {"measurement": "cell viability / cytotoxicity", "setting": "[4]", "result": "no significant cytotoxicity; also recorded: nontoxic"}]}]}
